Measured values: publication PMC12102759 (Protein Science : A Publication of the Protein Society, 2025)
Where two headings read alike, the source gives them in different places.

Tested on: PABPC1 PABC
Assay type: binding, human
Settings: DMS-BM library, bait PABPC1 PABC, row aa = residue at this position; for DMS-derived PSSM value, position K9 / DMS-derived PSSM value, position K7: K = wild type; for DMS-derived PSSM value (averaged), position L2 / DMS-derived PSSM value, position L2: L = wild type; for DMS-derived PSSM value, position S15 / DMS-derived PSSM value, position S2 / DMS-derived PSSM value, position S13: S = wild type
[1] = prey ATXN2, peptide KSTLNPNAKEFNPRSF, P = wild type
[2] = prey ATXN2, peptide KSTLNPNAKEFNPRSF
[3] = prey ATXN2, peptide TLNPNAKEFNPRSFSQ, N = wild type
[4] = prey ATXN2, peptide TLNPNAKEFNPRSFSQ, T = wild type
[5] = prey ATXN2, TLNPNAKEFNPRSF(averaged) over the two overlapping peptides, F = wild type
[6] = prey ATXN2, peptide TLNPNAKEFNPRSFSQ, F = wild type
[7] = prey ATXN2, TLNPNAKEFNPRSF(averaged) over the two overlapping peptides, A = wild type
[8] = prey ATXN2, TLNPNAKEFNPRSF(averaged) over the two overlapping peptides, P = wild type
[9] = prey ATXN2, TLNPNAKEFNPRSF(averaged) over the two overlapping peptides
[10] = prey ATXN2, peptide TLNPNAKEFNPRSFSQ
[11] = prey ATXN2, peptide KSTLNPNAKEFNPRSF, F = wild type
[12] = prey ATXN2, TLNPNAKEFNPRSF(averaged) over the two overlapping peptides, E = wild type
[13] = prey ATXN2, TLNPNAKEFNPRSF(averaged) over the two overlapping peptides, N = wild type

## KSTLNPNAKEFNPRSF P6A (KSTLNANAKEFNPRSF)
[1]
  DMS-derived PSSM value, position P6: 0

## KSTLNPNAKEFNPRSF K9N (KSTLNPNANEFNPRSF)
[2]
  DMS-derived PSSM value, position K9: 0.1194

## TLNPNAKEFNPRSFSQ N5I (TLNPIAKEFNPRSFSQ)
[3]
  DMS-derived PSSM value, position N5: 0.01004

## TLNPNAKEFNPRSFSQ T1K (KLNPNAKEFNPRSFSQ)
[4]
  DMS-derived PSSM value, position T1: 0.03828

## TLNPNAKEFNPRSF(averaged) F9D (TLNPNAKEDNPRSF)
[5]
  DMS-derived PSSM value (averaged), position F9: 0.001318

## TLNPNAKEFNPRSFSQ F9E (TLNPNAKEENPRSFSQ)
[6]
  DMS-derived PSSM value, position F9: 0.05407

## TLNPNAKEFNPRSFSQ N5V (TLNPVAKEFNPRSFSQ)
[3]
  DMS-derived PSSM value, position N5: 0.09342

## TLNPNAKEFNPRSFSQ A6H (TLNPNHKEFNPRSFSQ)
Prey ATXN2, peptide TLNPNAKEFNPRSFSQ, A = wild type
  DMS-derived PSSM value, position A6: 0

## TLNPNAKEFNPRSF(averaged) T1I (ILNPNAKEFNPRSF)
Prey ATXN2, TLNPNAKEFNPRSF(averaged) over the two overlapping peptides, T = wild type
  DMS-derived PSSM value (averaged), position T1: 0.08555

## TLNPNAKEFNPRSF(averaged) A6Y (TLNPNYKEFNPRSF)
[7]
  DMS-derived PSSM value (averaged), position A6: 0

## TLNPNAKEFNPRSF(averaged) A6H (TLNPNHKEFNPRSF)
[7]
  DMS-derived PSSM value (averaged), position A6: 0

## TLNPNAKEFNPRSF(averaged) P11N (TLNPNAKEFNNRSF)
[8]
  DMS-derived PSSM value (averaged), position P11: 0.02352

## TLNPNAKEFNPRSF(averaged) L2G (TGNPNAKEFNPRSF)
[9]
  DMS-derived PSSM value (averaged), position L2: 0

## KSTLNPNAKEFNPRSF P13D (KSTLNPNAKEFNDRSF)
[1]
  DMS-derived PSSM value, position P13: 0.0004732

## KSTLNPNAKEFNPRSF E10S (KSTLNPNAKSFNPRSF)
Prey ATXN2, peptide KSTLNPNAKEFNPRSF, E = wild type
  DMS-derived PSSM value, position E10: 0

## TLNPNAKEFNPRSFSQ S15H (TLNPNAKEFNPRSFHQ)
[10]
  DMS-derived PSSM value, position S15: 0.01215

## KSTLNPNAKEFNPRSF F16H (KSTLNPNAKEFNPRSH)
[11]
  DMS-derived PSSM value, position F16: 0.03107

## KSTLNPNAKEFNPRSF P13H (KSTLNPNAKEFNHRSF)
[1]
  DMS-derived PSSM value, position P13: 0

## TLNPNAKEFNPRSF(averaged) F14I (TLNPNAKEFNPRSI)
[5]
  DMS-derived PSSM value (averaged), position F14: 0.0374

## TLNPNAKEFNPRSFSQ T1D (DLNPNAKEFNPRSFSQ)
[4]
  DMS-derived PSSM value, position T1: 0.106

## TLNPNAKEFNPRSFSQ P11S (TLNPNAKEFNSRSFSQ)
Prey ATXN2, peptide TLNPNAKEFNPRSFSQ, P = wild type
  DMS-derived PSSM value, position P11: 0.03014

## TLNPNAKEFNPRSF(averaged) A6G (TLNPNGKEFNPRSF)
[7]
  DMS-derived PSSM value (averaged), position A6: 0

## TLNPNAKEFNPRSF(averaged) E8A (TLNPNAKAFNPRSF)
[12]
  DMS-derived PSSM value (averaged), position E8: 0.01267

## KSTLNPNAKEFNPRSF F16A (KSTLNPNAKEFNPRSA)
[11]
  DMS-derived PSSM value, position F16: 0.08044

## TLNPNAKEFNPRSF(averaged) N10H (TLNPNAKEFHPRSF)
[13]
  DMS-derived PSSM value (averaged), position N10: 0.03178

## KSTLNPNAKEFNPRSF A8P (KSTLNPNPKEFNPRSF)
Prey ATXN2, peptide KSTLNPNAKEFNPRSF, A = wild type
  DMS-derived PSSM value, position A8: 0

## TLNPNAKEFNPRSFSQ L2W (TWNPNAKEFNPRSFSQ)
[10]
  DMS-derived PSSM value, position L2: 0.1455

## TLNPNAKEFNPRSFSQ L2I (TINPNAKEFNPRSFSQ)
[10]
  DMS-derived PSSM value, position L2: 0.001607

## KSTLNPNAKEFNPRSF N7H (KSTLNPHAKEFNPRSF)
Prey ATXN2, peptide KSTLNPNAKEFNPRSF, N = wild type
  DMS-derived PSSM value, position N7: 0.03167

## TLNPNAKEFNPRSF(averaged) P11K (TLNPNAKEFNKRSF)
[8]
  DMS-derived PSSM value (averaged), position P11: 0

## TLNPNAKEFNPRSFSQ R12T (TLNPNAKEFNPTSFSQ)
Prey ATXN2, peptide TLNPNAKEFNPRSFSQ, R = wild type
  DMS-derived PSSM value, position R12: 0.06242

## TLNPNAKEFNPRSF(averaged) N5H (TLNPHAKEFNPRSF)
[13]
  DMS-derived PSSM value (averaged), position N5: 0.03609

## KSTLNPNAKEFNPRSF S2M (KMTLNPNAKEFNPRSF)
[2]
  DMS-derived PSSM value, position S2: 0.2211

## TLNPNAKEFNPRSF(averaged) L2E (TENPNAKEFNPRSF)
[9]
  DMS-derived PSSM value (averaged), position L2: 0.04453

## TLNPNAKEFNPRSFSQ S13D (TLNPNAKEFNPRDFSQ)
[10]
  DMS-derived PSSM value, position S13: 0.05929

## TLNPNAKEFNPRSF(averaged) F14V (TLNPNAKEFNPRSV)
[5]
  DMS-derived PSSM value (averaged), position F14: 0.12

## TLNPNAKEFNPRSF(averaged) E8D (TLNPNAKDFNPRSF)
[12]
  DMS-derived PSSM value (averaged), position E8: 0

## TLNPNAKEFNPRSF(averaged) N10Y (TLNPNAKEFYPRSF)
[13]
  DMS-derived PSSM value (averaged), position N10: 0.1006

## TLNPNAKEFNPRSF(averaged) N3K (TLKPNAKEFNPRSF)
[13]
  DMS-derived PSSM value (averaged), position N3: 0

## KSTLNPNAKEFNPRSF S15W (KSTLNPNAKEFNPRWF)
[2]
  DMS-derived PSSM value, position S15: 0.009844

## TLNPNAKEFNPRSFSQ E8W (TLNPNAKWFNPRSFSQ)
Prey ATXN2, peptide TLNPNAKEFNPRSFSQ, E = wild type
  DMS-derived PSSM value, position E8: 0

## TLNPNAKEFNPRSFSQ N10L (TLNPNAKEFLPRSFSQ)
[3]
  DMS-derived PSSM value, position N10: 0.1974

## TLNPNAKEFNPRSFSQ S15N (TLNPNAKEFNPRSFNQ)
[10]
  DMS-derived PSSM value, position S15: 0.007151

## TLNPNAKEFNPRSFSQ N5Q (TLNPQAKEFNPRSFSQ)
[3]
  DMS-derived PSSM value, position N5: 0.004159

## KSTLNPNAKEFNPRSF S15R (KSTLNPNAKEFNPRRF)
[2]
  DMS-derived PSSM value, position S15: 0.007958

## TLNPNAKEFNPRSFSQ K7D (TLNPNADEFNPRSFSQ)
[10]
  DMS-derived PSSM value, position K7: 0.01281

## TLNPNAKEFNPRSF(averaged) N5F (TLNPFAKEFNPRSF)
[13]
  DMS-derived PSSM value (averaged), position N5: 0.03844

## TLNPNAKEFNPRSFSQ N3R (TLRPNAKEFNPRSFSQ)
[3]
  DMS-derived PSSM value, position N3: 0.02401

## TLNPNAKEFNPRSF(averaged) N3F (TLFPNAKEFNPRSF)
[13]
  DMS-derived PSSM value (averaged), position N3: 0

## KSTLNPNAKEFNPRSF S2R (KRTLNPNAKEFNPRSF)
[2]
  DMS-derived PSSM value, position S2: 0.0005784

## KSTLNPNAKEFNPRSF P13V (KSTLNPNAKEFNVRSF)
[1]
  DMS-derived PSSM value, position P13: 0.767

## TLNPNAKEFNPRSF(averaged) N5L (TLNPLAKEFNPRSF)
[13]
  DMS-derived PSSM value (averaged), position N5: 0.05209

## TLNPNAKEFNPRSF(averaged) P11Y (TLNPNAKEFNYRSF)
[8]
  DMS-derived PSSM value (averaged), position P11: 0.02499

## TLNPNAKEFNPRSF(averaged) R12I (TLNPNAKEFNPISF)
Prey ATXN2, TLNPNAKEFNPRSF(averaged) over the two overlapping peptides, R = wild type
  DMS-derived PSSM value (averaged), position R12: 0.04426

## KSTLNPNAKEFNPRSF K9F (KSTLNPNAFEFNPRSF)
[2]
  DMS-derived PSSM value, position K9: 0.02411

## TLNPNAKEFNPRSFSQ S13H (TLNPNAKEFNPRHFSQ)
[10]
  DMS-derived PSSM value, position S13: 0.01388

## TLNPNAKEFNPRSF(averaged) P4R (TLNRNAKEFNPRSF)
[8]
  DMS-derived PSSM value (averaged), position P4: 0

## TLNPNAKEFNPRSFSQ K7N (TLNPNANEFNPRSFSQ)
[10]
  DMS-derived PSSM value, position K7: 0.08014

## TLNPNAKEFNPRSFSQ N3I (TLIPNAKEFNPRSFSQ)
[3]
  DMS-derived PSSM value, position N3: 0

## TLNPNAKEFNPRSFSQ F14L (TLNPNAKEFNPRSLSQ)
[6]
  DMS-derived PSSM value, position F14: 0.08923

## TLNPNAKEFNPRSFSQ F14K (TLNPNAKEFNPRSKSQ)
[6]
  DMS-derived PSSM value, position F14: 0.003921
